Source: patent publication US8178678B2, “Bis-quaternary ammonium salts and methods for modulating neuronal nicotinic acetylcholine receptors” (University of Kentucky Research Foundation, priority 2006, dated 2012)
Like-named read-outs stand apart in the source and are kept apart here.

Tests used:
[1] = target: T1, Rat Striatal Nicotinic Receptors ([^3H]NIC binding sites; α4β2) (Rattus norvegicus, UniProt P09483+P12390); assay: Inhibition of [^3H]NIC binding; conditions: for Ki: full concentration effect, 3 nM [^3H]NIC, nonspecific 10 μM cytisine, rat brain membranes, read-out: [^3H]NIC binding, Ki
T1 construct: Whole brain, excluding cortex and cerebellum, was homogenized in 20 vol of ice-cold buffer; from tissue; host or cells: rat brain membranes (whole brain excluding cortex and cerebellum)
T1 sequence (P09483 31-630): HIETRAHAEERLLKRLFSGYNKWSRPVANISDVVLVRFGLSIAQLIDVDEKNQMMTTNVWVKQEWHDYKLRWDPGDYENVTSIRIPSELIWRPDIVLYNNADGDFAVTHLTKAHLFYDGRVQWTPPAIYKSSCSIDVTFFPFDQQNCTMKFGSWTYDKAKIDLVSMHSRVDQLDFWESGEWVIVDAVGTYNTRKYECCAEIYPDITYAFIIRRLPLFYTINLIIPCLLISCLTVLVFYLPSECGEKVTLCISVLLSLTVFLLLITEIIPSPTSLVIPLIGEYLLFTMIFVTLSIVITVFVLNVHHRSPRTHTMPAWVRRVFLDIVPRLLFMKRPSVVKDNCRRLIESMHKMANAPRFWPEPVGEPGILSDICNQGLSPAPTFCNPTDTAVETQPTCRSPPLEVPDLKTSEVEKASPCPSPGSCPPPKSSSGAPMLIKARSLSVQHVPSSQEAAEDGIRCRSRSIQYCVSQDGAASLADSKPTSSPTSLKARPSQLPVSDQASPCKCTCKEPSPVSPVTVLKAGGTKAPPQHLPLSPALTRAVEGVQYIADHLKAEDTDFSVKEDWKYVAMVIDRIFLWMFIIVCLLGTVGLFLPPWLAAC
T1 sequence (P12390 25-500): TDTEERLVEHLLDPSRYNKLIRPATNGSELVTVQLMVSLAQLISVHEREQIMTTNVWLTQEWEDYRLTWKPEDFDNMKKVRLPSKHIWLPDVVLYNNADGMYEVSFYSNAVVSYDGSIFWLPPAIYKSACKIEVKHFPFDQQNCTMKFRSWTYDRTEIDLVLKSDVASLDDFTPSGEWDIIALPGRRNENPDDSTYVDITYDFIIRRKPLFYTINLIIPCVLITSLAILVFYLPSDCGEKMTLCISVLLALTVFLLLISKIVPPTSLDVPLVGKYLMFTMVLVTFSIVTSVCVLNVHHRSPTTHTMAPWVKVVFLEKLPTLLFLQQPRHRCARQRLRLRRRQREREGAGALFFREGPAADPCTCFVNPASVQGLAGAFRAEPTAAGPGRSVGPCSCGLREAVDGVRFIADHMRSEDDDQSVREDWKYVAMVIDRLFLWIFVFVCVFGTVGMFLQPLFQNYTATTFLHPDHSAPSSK

[2] = target: T2, Rat Striatal Nicotinic Receptors ([^3H]MLA binding sites; α7) (Rattus norvegicus, UniProt Q05941); assay: Inhibition of [^3H]MLA (methyllycaconitine) binding; conditions: for Ki: full concentration effect, read-out: [^3H]MLA binding, Ki; for inhibition at 0.1 µM: read-out: [^3H]MLA binding, % inhibition
T2 construct: Whole brain, excluding cortex and cerebellum, was homogenized in 20 vol of ice-cold buffer; from tissue; host or cells: rat brain membranes (whole brain excluding cortex and cerebellum)
T2 sequence (Q05941 23-502): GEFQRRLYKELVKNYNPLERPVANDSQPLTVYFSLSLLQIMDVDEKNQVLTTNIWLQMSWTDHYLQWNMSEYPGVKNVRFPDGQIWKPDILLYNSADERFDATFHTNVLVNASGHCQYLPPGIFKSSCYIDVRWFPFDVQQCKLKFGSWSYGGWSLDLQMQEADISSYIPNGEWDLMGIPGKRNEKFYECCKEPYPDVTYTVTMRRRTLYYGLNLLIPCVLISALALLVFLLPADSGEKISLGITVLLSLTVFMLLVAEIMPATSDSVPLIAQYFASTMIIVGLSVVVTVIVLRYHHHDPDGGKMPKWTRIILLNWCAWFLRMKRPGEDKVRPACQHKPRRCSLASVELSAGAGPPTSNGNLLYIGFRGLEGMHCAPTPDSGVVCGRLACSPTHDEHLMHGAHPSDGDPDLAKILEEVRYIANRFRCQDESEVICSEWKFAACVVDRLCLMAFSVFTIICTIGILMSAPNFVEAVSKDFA
Summary of the method: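 Rat brain membranes were washed by repeated centrifugation at 25,000 g, with a 10 min incubation at 37° C. in between. Samples of 250 μl, containing 100-140 μg of membrane protein, 3 nM [^3H]-methyllycaconitine and test analog in 50 mM Tris assay buffer, were incubated in 96-well plates for 60 min at room temperature. Nonspecific binding was defined with 10 μM S-nicotine. Bound radioactivity was collected on polyethylenimine-soaked GF/B filter plates and counted on a TopCount.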

[3] = test system: nicotinic receptors mediating S-nicotine-evoked [^3H]DA release in rat striatal slices; assay: Inhibition of S-nicotine-evoked [^3H]dopamine release from superfused rat striatal slices; type: cell-based; conditions: 1 h, read-out: [^3H]DA release, % inhibition of S-nicotine-evoked release
Experimental: Rat striatal slices (500 μm thickness, 6-8 mg wet weight) were incubated for 30 minutes in Krebs buffer (118 mM NaCl, 4.7 mM KCl, 1.2 mM MgCl2, 1.0 mM NaH2PO4, 1.3 mM CaCl2, 11.1 mM glucose, 25 mM NaHCO3, 0.11 mM L-ascorbic acid, and 0.004 mM disodium EDTA; pH 7.4, and saturated with 95% O2/5% CO2) in a metabolic shaker at 34° C. Slices were rinsed with 15 mL of fresh buffer and incubated for an additional 30 minutes in fresh buffer containing 0.1 μM [^3H]dopamine (DA; 6 slices/3 mL). Subsequently, slices were rinsed with 15 mL of fresh buffer and transferred to a glass superfusion chamber. Slices were superfused (1.0 mL/min) for 60 minutes with Krebs buffer containing nomifensine (10 μM) and pargyline (10 μM) and maintained at 34° C., pH 7.4, with continual aeration (95% O2/5% CO2). Two five minute samples (5 mL each) were collected to determine basal outflow of [^3H]DA. The bis-quaternary ammonium analogs were added to the superfusion buffer after the collection of the second sample and remained in the buffer until 12 consecutive five minute samples were collected. Subsequently, S-nicotine (NIC; 10 μM) was added to the buffer and an additional 12 consecutive five minute samples were collected. At the end of the experiment, each slice was solubilized and the [^3H] content of the tissue determined.
Radioactivity in the superfusate and tissue samples was determined by liquid scintillation spectroscopy. Fractional release for tritium collected in each sample was divided by the total tritium present in the tissue at the time of sample collection and was expressed as a percentage of total tritium. Basal [^3H]outflow was calculated from the average of the tritium collected in the two five minute samples just before addition of the quaternary analog. The sum of the increase in collected tritium resulting from either exposure to the test compound or exposure to S-nicotine in the absence and presence of the test compound equaled total [^3H]overflow. [^3H]Overflow was calculated by subtracting the [^3H]outflow during an equivalent period of prestimulation from the values in samples collected during and after drug exposure. Inasmuch as the radiolabelled compounds were not separated and identified, the tritium collected in superfusate is referred to as either [3H]outflow or [^3H]overflow, rather than as [^3H]DA. [^3H]Overflow primarily represents [^3H]DA in the presence of nomifensine and pargyline in the superfusion buffer.
The bis-quaternary ammonium analogs were also evaluated for their ability to inhibit NIC evoked [^3H]DA release. In these experiments, the striatal slices were superfused for 60 minutes with 100 nM concentration of the quaternary analogs prior to NIC (10 μM) exposure. Antagonist activity was evaluated by comparing the NIC-evoked [^3 H]overflow in the absence and presence of the analogs. The relative order of potency of the quaternary analogs for inhibition of NIC-evoked [^3H]DA release from rat striatal slices is illustrated in Table 1.
^aData are % inhibition at 100 nM concentration of the bis-quaternary ammonium analogs for at least 1-3 independent experiments; with the exception of when a Ki value in μM is provided, in which case a full concentration effect was evaluated. Specific binding in the [^3H]NIC binding assay is calculated as the difference between the total binding of 3 nM [^3H]NIC and nonspecific binding in the presence of 10 μM cold cytisine. Specific binding for the [^3H]MLA binding assay is calculated as the difference between the total binding of […] [^3H]MLA to the receptors alone and its nonspecific binding in the presence of […] cold S-nicotine. Analog-induced inhibition of S-nicotine-evoked [^3H]DA release is calculated as a percent of that in the absence of the bis-quaternary ammonium analog.

[4] = target: T1, Rat Striatal Nicotinic Receptors ([^3H]NIC binding sites; α4β2); assay: Inhibition of [^3H]NIC binding; conditions: 1 h; 100 nM analog; 3 nM [^3H]NIC; nonspecific 10 μM cytisine; rat brain membranes
[5] = [^3H]MLA, nonspecific S-nicotine, rat brain membranes
[6] = 100 nM analog superfused 60 min before NIC 10 μM, rat striatal slices
[7] = 100 nM analog, [^3H]MLA, nonspecific S-nicotine, rat brain membranes

c1cc2c([n+](CCCCc3ccc(CCCC[n+]4cccc5c4CCCC5)cc3)c1)CCCC2 [Example 15, N,N′-[1,4-phenylenedi-(4-butanyl)]-bis-(5,6,7,8-tetrahydroquinolinium)dibromide]
Ki [1]: 12 µM | Ki [2, 5]: 7.68 µM

Cc1ccc[n+](CCCCc2ccc(CCCC[n+]3cccc(C)c3)cc2)c1 [Example 12, N,N′-[1,4-phenylenedi-(4-butanyl)]-bis-(3-methylpyridinium)dibromide]
Ki [1]: > 100 µM | Ki [2, 5]: > 100 µM | inhibition at 0.1 µM [3, 6]: 44%

C(/C=C\CCCC[n+]1cccc2c1CCCC2)=C/CCCC[n+]1cccc2c1CCCC2 [Example 5, cis-cis-N,N′-(dodeca-5,7-diene-1,12-diyl)-bis-(5,6,7,8-tetrahydro-quinolinium)dibromide]
Ki [1]: 3.63 µM | Ki [2, 5]: 7.64 µM

Cc1cccc[n+]1CCCC/C=C\C=C/CCCC[n+]1ccccc1C [Example 2, cis-cis-N,N′-(dodeca-5,7-diene-1,12-diyl)-bis-(2-methyl-pyridinium)dibromide]
inhibition at 0.1 µM ([1]; 1 h, read-out: [^3H]NIC binding, % inhibition): 11% | inhibition at 0.1 µM [2]: 4.2% | inhibition at 0.1 µM ([3]; Rattus norvegicus): 0%

Cc1ccc[n+](CCCC/C=C\C=C/CCCC[n+]2cccc(C)c2)c1 [Example 3, cis-cis-N,N′-(dodeca-5,7-diene-1,12-diyl)-bis-(3-methyl-pyridinium)dibromide]
Ki [1]: > 100 µM | Ki [2, 5]: > 100 µM | inhibition at 0.1 µM [3, 6]: 31%

c1cc(CCCC[n+]2ccc3c(c2)CCCC3)ccc1CCCC[n+]1ccc2c(c1)CCCC2 [Example 16, N,N′-[1,4-phenylenedi-(4-butanyl)]-bis-(5,6,7,8-tetrahydroisoquinolinium)dibromide]
Ki [1]: > 100 µM | Ki [2, 5]: 15.3 µM

Cc1cc[n+](CCC#Cc2ccc(C#CCC[n+]3ccc(C)cc3)cc2)cc1 [Example 98, N,N′-[(1,4-phenylene)-bis-(4-butynyl)]-bis-(4-methyl-pyridinium)dibromide]
Ki [1]: 8.5 µM | Ki [2, 5]: > 100 µM | inhibition at 0.1 µM [3, 6]: 29%

Cc1cc[n+](CCCCC#CC#CCCCC[n+]2ccc(C)cc2)cc1 [Example 93, N,N′-(5,7-dodecadiyn-1,12-diyl)-bis-(4-methylpyridinium)dichloride]
Ki [1]: 8.93 µM | Ki [2, 5]: 5.11 µM | inhibition at 0.1 µM [3, 6]: 19%

C(/C=C\CCCC[n+]1ccc2c(c1)CCCC2)=C/CCCC[n+]1ccc2c(c1)CCCC2 [Example 6, cis-cis-N,N′-(dodeca-5,7-diene-1,12-diyl)-bis-(5,6,7,8-tetrahydro-isoquinolinium)dibromide]
Ki [1]: 5.84 µM | Ki [2, 5]: 3 µM

Cc1cc[n+](CCOCCOCCOCC[n+]2ccc(C)cc2)cc1 [Example 83, N,N′-{2,2′-[oxybis-(2,1-ethandiyloxy)]bis-ethyl}-bis(4-methylpyridinium)dichloride]
inhibition at 0.1 µM [4]: 15% | inhibition at 0.1 µM [2, 7]: 7% | inhibition at 0.1 µM [3, 6]: 53%

CN1CCC[C@@H]1c1ccc[n+](CCCC#Cc2cccc(C#CCCC[n+]3cccc([C@H]4CCCN4C)c3)c2)c1 [Example 56, 1,3-bis-[5(2′-S-nicotinium-pent-1-ynyl)]benzene dibromide]
inhibition at 0.1 µM [4]: 3.1% | inhibition at 0.1 µM [2, 7]: 2.6% | inhibition at 0.1 µM [3, 6]: 18%

Cc1cc[n+](CCCC#Cc2cccc(C#CCCC[n+]3ccc(C)c(C)c3)c2)cc1C [Example 52, 1,3-bis-[5-(3,4-dimethyl-pyridinium)-pent-1-ynyl]-benzene dibromide]
inhibition at 0.1 µM [4]: 11% | inhibition at 0.1 µM [2, 7]: 3.3% | inhibition at 0.1 µM [3, 6]: 11%

Brc1ccc[n+](CCCCCc2ccccc2CCCCC[n+]2cccc(Br)c2)c1 [Example 44, 1,2-bis-[5-(3-bromo-pyridinium)-pentyl]-benzene dibromide]
inhibition at 0.1 µM [4]: 2.9% | inhibition at 0.1 µM [2, 7]: 0.9% | inhibition at 0.1 µM [3, 6]: 7%

Cc1ccc[n+](CCCC#Cc2cccc(C#CCCC[n+]3cccc(C)c3)c2)c1 [Example 49, 1,3-bis-[5-(3-methyl-pyridinium)-pent-1-ynyl]-benzene dibromide]
inhibition at 0.1 µM [4]: 0.5% | inhibition at 0.1 µM [2, 7]: 8% | inhibition at 0.1 µM [3, 6]: 6%

Cc1ccc[n+](CCCCCc2ccccc2CCCCC[n+]2cccc(C)c2)c1 [Example 35, 1,2-bis-[5-(3-methyl-pyridinium)-pentyl]-benzene dibromide]
inhibition at 0.1 µM [4]: 0% | inhibition at 0.1 µM [2, 7]: 5.4% | inhibition at 0.1 µM [3, 6]: 25%

C(C#CCCCC[n+]1ccc2c(c1)CCCC2)#CCCCC[n+]1ccc2c(c1)CCCC2 [Example 96, N,N′-(5,7-dodecadiyn-1,12-diyl)-bis-(5,6,7,8-tetrahydroisoquinolinium)dichloride]
Ki [1]: 11.3 µM | Ki [2, 5]: 5.36 µM

Cc1cccc[n+]1CCCCCc1cccc(CCCCC[n+]2ccccc2C)c1 [Example 62, 1,3-bis-[5-(2-methyl-pyridinium)-pentyl]-benzene dibromide]
inhibition at 0.1 µM [4]: 7.2% | inhibition at 0.1 µM [2, 7]: 0% | inhibition at 0.1 µM [3, 6]: 62%

Cc1ccc[n+](CCCC#Cc2ccccc2C#CCCC[n+]2cccc(C)c2)c1 [Example 24, 1,2-bis-[5-(3-methyl-pyridinium)-pent-1-ynyl]-benzene dibromide]
inhibition at 0.1 µM [4]: 3.9% | inhibition at 0.1 µM [2, 7]: 0% | inhibition at 0.1 µM [3, 6]: 46%

c1cc[n+](CCCCCc2ccccc2CCCCC[n+]2ccccc2)cc1 [Example 45, 1,2-bis-(5-pyridinium-pentyl)-benzene dibromide]
inhibition at 0.1 µM [4]: 3.3% | inhibition at 0.1 µM [2, 7]: 1.9% | inhibition at 0.1 µM [3, 6]: 37%

Cc1ccc[n+](CCOCCOCCOCC[n+]2cccc(C)c2)c1 [Example 82, N,N′-{2,2′-[oxybis-(2,1-ethandiyloxy)]bis-ethyl}-bis(3-methylpyridinium)dichloride]
inhibition at 0.1 µM [4]: 17% | inhibition at 0.1 µM [2, 7]: 13% | inhibition at 0.1 µM [3, 6]: 58%

c1ccc(CCCCC[n+]2cccc3ccccc32)c(CCCCC[n+]2cccc3ccccc32)c1 [Example 40, 1,2-bis-(5-quinolinium-pentyl)-benzene dibromide]
inhibition at 0.1 µM [4]: 0% | inhibition at 0.1 µM [2, 7]: 6.3% | inhibition at 0.1 µM [3, 6]: 24%

Cc1cc[n+](CCCC#Cc2ccccc2C#CCCC[n+]2ccc(C)cc2)cc1 [Example 25, 1,2-bis-[5-(4-methyl-pyridinium)-pent-1-ynyl]-benzene dibromide]
inhibition at 0.1 µM [4]: 2.5% | inhibition at 0.1 µM [2, 7]: 5.4% | inhibition at 0.1 µM [3, 6]: 12%

Cc1cc(C)c[n+](CCCC#Cc2cccc(C#CCCC[n+]3cc(C)cc(C)c3)c2)c1 [Example 53, 1,3-bis-[5-(3,5-dimethyl-pyridinium)-pent-1-ynyl]-benzene dibromide]
inhibition at 0.1 µM [4]: 0% | inhibition at 0.1 µM [2, 7]: 1.3% | inhibition at 0.1 µM [3, 6]: 4%
